According to publication PMC11434026, “Development and Validation of an LC-MS/MS Assay for the Quantitation of MO-OH-Nap Tropolone in Mouse Plasma: Application to In Vitro and In Vivo Pharmacokinetic Studies” (Molecules, 2024):

What was measured:
[1] = Stability in mouse plasma at storage and use conditions; format: physicochemical
Procedure: The chemical stability of MO-OH-Nap and IS in plasma samples were assessed at LQC, MQC, and HQC concentrations, n = 3, under the following storage conditions: bench-top storage (up to 6 h at room temperature, 21 ± 0.5 °C), three freeze–thaw cycles (−80 ± 0.5 °C to room temperature for 30 min, back to −80 ± 0.5 °C then stored for 24 h, the cycle was repeated twice more), long-term storage (12 months at −80 ± 0.5 °C), and 24 h auto-sampler stability of extracted samples (at 4 ± 0.5 °C).

CD-1 mice = system: CD-1 mice; design: method as in PMID 30612055; conditions: up to 9.4 mg/kg intravenously three times weekly; cited from earlier work
[2] = autosampler 4 °C, up to 24 h, extracted samples, HQC 375 ng/mL
[3] = autosampler 4 °C, up to 24 h, extracted samples, LQC 3 ng/mL
[4] = autosampler 4 °C, up to 24 h, extracted samples, MQC 200 ng/mL
[5] = bench-top 21 °C, up to 6 h, HQC 375 ng/mL
[6] = bench-top 21 °C, up to 6 h, LQC 3 ng/mL
[7] = bench-top 21 °C, up to 6 h, MQC 200 ng/mL
[8] = freeze-thaw −80 °C, 3 cycles, HQC 375 ng/mL
[9] = freeze-thaw −80 °C, 3 cycles, LQC 3 ng/mL
[10] = freeze-thaw −80 °C, 3 cycles, MQC 200 ng/mL
[11] = long-term −80 °C, 12 months, HQC 375 ng/mL
[12] = long-term −80 °C, 12 months, LQC 3 ng/mL
[13] = long-term −80 °C, 12 months, MQC 200 ng/mL

For O=c1c(O)ccccc1-c1ccc2ccccc2c1 [MO-OH-Nap, MO-OH-Nap tropolone], the “% Accuracy” value [1, 2] was 90.7 ± 5.3%, the “Measured Mean Conc.” value [1, 2] was 340.2 ± 20.1 ng/mL and the “% Accuracy” value [1, 3] was 101.9 ± 5.8%. The “Measured Mean Conc.” value [1, 3] was 3.1 ± 0.2 ng/mL, the “% Accuracy” value [1, 4] was 90.1 ± 0.6% and the “Measured Mean Conc.” value [1, 4] was 180.2 ± 1.10 ng/mL. For the same compound, the “% Accuracy” value [1, 5] was 101.5 ± 5.6%, the “Measured Mean Conc.” value [1, 5] was 380.5 ± 20.9 ng/mL and the “% Accuracy” value [1, 6] was 107.8 ± 14.8%. For the same compound, the “Measured Mean Conc.” value [1, 6] was 3.2 ± 0.5 ng/mL, the “% Accuracy” value [1, 7] was 95.8 ± 9.1% and the “Measured Mean Conc.” value [1, 7] was 191.6 ± 18.1 ng/mL. The “% Accuracy” value [1, 8] was 88.6 ± 4.7%, the “Measured Mean Conc.” value [1, 8] was 332.2 ± 17.6 ng/mL and the “% Accuracy” value [1, 9] was 100.5 ± 13.3%. For the same compound, the “Measured Mean Conc.” value [1, 9] was 3.0 ± 0.4 ng/mL, the “% Accuracy” value [1, 10] was 84.0 ± 0.9% and the “Measured Mean Conc.” value [1, 10] was 167.9 ± 1.8 ng/mL. The “% Accuracy” value [1, 11] was 92.7 ± 0.4%, the “Measured Mean Conc.” value [1, 11] was 347.4 ± 1.5 ng/mL and the “% Accuracy” value [1, 12] was 95.6 ± 2.4%. The “Measured Mean Conc.” value [1, 12] was 2.9 ± 0.1 ng/mL, the “% Accuracy” value [1, 13] was 99.8 ± 0.6% and the “Measured Mean Conc.” value [1, 13] was 199.5 ± 1.3 ng/mL. For the same compound, the “tolerability (blood counts, renal and hepatic functions, body weight)” value (CD-1 mice) was “well-tolerated”.
